Data on six compounds can be found in publication PMC6010117, “Isatin: a privileged scaffold for the design of carbonic anhydrase inhibitors” (Journal of Enzyme Inhibition and Medicinal Chemistry, 2016).

One may read the Ki as the dissociation constant of the complex between target and ligand, obtained from inhibition or displacement. A low value points to tighter binding.

Common to all, as to experiment: CA inhibition assay, Verpoorte method at […] nm, Lineweaver-Burk
Holding throughout (assay type): biochemical

One assay concerns the target T1, hCA IX (Homo sapiens, UniProt Q16790).
T1 construct: gene CA9; not described

The target of the next assay is T2, hCA XII (Homo sapiens, UniProt O43570).
T2 construct: gene CA12; not described

Another assay has as its target T3, hCA II (Homo sapiens, UniProt P00918).
T3 construct: gene CA2

For the next assay, the target named is T4, hCA I (Homo sapiens, UniProt P00915).
T4 construct: gene CA1
T4 sequence (P00915 2-261): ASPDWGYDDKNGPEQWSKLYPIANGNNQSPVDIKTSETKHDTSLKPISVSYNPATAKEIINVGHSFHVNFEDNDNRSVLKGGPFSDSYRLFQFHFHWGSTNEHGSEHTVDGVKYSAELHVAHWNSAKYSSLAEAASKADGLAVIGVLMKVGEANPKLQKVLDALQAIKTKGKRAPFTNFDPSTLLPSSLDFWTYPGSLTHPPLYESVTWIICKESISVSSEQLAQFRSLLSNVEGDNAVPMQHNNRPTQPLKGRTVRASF

T2 sequence (O43570 25-354): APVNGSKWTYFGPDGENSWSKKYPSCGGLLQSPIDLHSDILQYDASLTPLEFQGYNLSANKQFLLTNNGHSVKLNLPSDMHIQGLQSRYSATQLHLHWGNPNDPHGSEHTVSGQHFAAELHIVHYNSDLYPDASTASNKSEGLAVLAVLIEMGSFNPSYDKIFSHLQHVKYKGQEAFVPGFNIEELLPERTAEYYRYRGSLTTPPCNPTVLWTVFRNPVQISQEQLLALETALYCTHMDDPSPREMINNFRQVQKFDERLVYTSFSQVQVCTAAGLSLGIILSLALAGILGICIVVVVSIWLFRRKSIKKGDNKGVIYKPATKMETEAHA

With `CN1C(=O)C(=C2C(=O)Nc3c(F)cccc32)SC1=Nc1ccc(S(N)(=O)=O)cc1` [m, EMAC 10020 m], the inhibitory constant (Ki) on hCA IX amounted to 4.1 nM; at hCA XII, 90.7 nM; on hCA II, 139 nM; on hCA I, 44.3 nM.
Take `Cc1ccc2c(c1)C(=C1SC(=Nc3ccc(S(N)(=O)=O)cc3)N(C)C1=O)C(=O)N2` [l, EMAC 10020 l]: the inhibitory constant (Ki) at hCA IX was 3 nM; at hCA XII, 440 nM; at hCA II, 79.1 nM; on hCA I it was 87.6 nM.
On to `CN1C(=O)C(=C2C(=O)Nc3ccc(C(F)(F)F)cc32)SC1=Nc1ccc(S(N)(=O)=O)cc1` [n, EMAC 10020 n], for which the Ki on hCA IX worked out at 2660 nM; at hCA XII, 873 nM; at hCA II it was 5720 nM; on hCA I it was 945 nM.
As for `CN1C(=O)C(=C2C(=O)Nc3ccc(Cl)cc32)SC1=Nc1ccc(S(N)(=O)=O)cc1` [c, EMAC 10020 c], the Ki at hCA IX worked out at 55.7 nM; on hCA XII, 865 nM; at hCA II, 8300 nM; on hCA I, 958 nM.
In the same order, the values of `CN1C(=O)C(=C2C(=O)Nc3c(Br)cccc32)SC1=Nc1ccc(S(N)(=O)=O)cc1` [o, EMAC 10020 o] are 126 nM, 824 nM, 8780 nM and 877 nM.
In the case of `CN1C(=O)C(=C2C(=O)Nc3ccc(F)cc32)SC1=Nc1ccc(S(N)(=O)=O)cc1` [d, EMAC 10020 d], the inhibition constant Ki at hCA IX is 50.7 nM; on hCA XII, 85 nM; on hCA II, 274 nM; at hCA I it was 50.3 nM.
